Experimental findings from patent US12012390B2, “Flavone compounds for the treatment and prophylaxis of hepatitis B virus disease” (priority 2018, dated 2024) are described below.

Like-named read-outs stand apart in the source and are kept apart here.

The test system of experiment [1] is HBV in primary human hepatocytes (PHH). Description: Cryopreserved primary human hepatocytes (PHH) HBV infection assay. The experiment is classed as cell-based. The note with it: HBV-infected cryopreserved PHH, 9 days post-compound treatment, extracellular HBsAg by CLIA, read-out: HBsAg IC50. The method, then: This assay is used to confirm the anti-HBV effect of the compounds in HBV PHH infection assay. Cryopreserved PHH (BioreclamationIVT, Lot YJM) was thawed at 37° C. and gently transferred into pre-warmed InVitroGRO HT medium (BioreclamationIVT, Cat. S03317). The mixture was centrifuged at 70 relative centrifugal force (RCF) for 3 minutes at RT, and the supernatant was discarded. Pre-warmed InVitroGRO CP medium (BioreclamationIVT, Cat #S03316) was added to the cell pellet to gently re-suspend cells. The cells were seeded at the density of 5.8×10^4 cells per well to collagen I coated 96-well plate (Gibco, Cat. A1142803) with the InVitroGRO CP medium. All plates were incubated at 37° C. with 5% CO2 and 85% humidity.
At 20 hours after plating, the medium was changed to PHH culture medium (Dulbecco's Modified Eagle Medium (DMEM)/F12 (1:1) (Gibco, Cat. 11320-033), 10% fetal bovine serum (Gibco Cat. 10099141), 100 U/mL penicillin, 100 μg/mL streptomycin (Gibco, Cat. 151401-122), 5 ng/mL human epidermal growth factor (Invitrogen Cat. PHG0311L), 20 ng/mL dexamethasone (Sigma, Cat. D4902) and 250 ng/mL human recombinant insulin (Gibco, Cat. 12585-014)). And the cells were incubated at 37° C. with 5% CO2 and 85% humidity for 4 hours. The medium was then changed to pre-warmed PHH culture medium containing 4% polyethylene glycol (PEG) MW8000 (Sigma, Cat. P1458-50ML) and 1% DMSO (Sigma, Cat. D2650). 5.8×10^6 genomic equivalents of HBV were added into the medium.
At 24 hours post-infection, the cells were gently washed with PBS and refreshed with PHH culture medium supplemented with 1% DMSO, and 0.25 mg/mL Matrix gel (Corning, Cat. 356237) at 200 μL per well. All plates were immediately placed in at 37° C. CO2 incubator.
24 hours later, serial dilutions of compounds made with DMSO were further diluted with the same culture medium (PHH culture medium supplemented with 1% DMSO and 0.25 mg/mL Matrix gel as described above) before they were added to the cells to reach desired final compound concentrations and 1% DMSO concentration. The medium containing the compounds were refreshed every three days.
At 9 days post-compound treatment, extracellular HBsAg level were measured with Chemiluminescence Immuno Assay (CLIA) kit (Autobio, HBsAg Quantitative CLIA). Extracellular HBV DNA was extracted by MagNA Pure 96 system (Roche) and then determined by quantitative PCR with the following primers and probe: […]
HBsAg IC50 and HBV DNA IC50 values were derived from the dose-response curve using 4 parameter logistic curve fit method. The compounds of formula (I) have HBsAg IC50<20 μM, particularly <1 μM; and HBV DNA IC50<50 μM. Test results of the compounds of this invention as well as the reference compounds in Cryopreserved PHH assay are given in Table 2 and Table 3.

The test system of experiment [2] is HBeAg level (surrogate marker for cccDNA) in HepDES19 cells. Description: Engineered HepDES19 primary screen assay (HBeAg as surrogate marker for cccDNA). The experiment is classed as cell-based, HBV. The source says: The assay was employed to screen for novel cccDNA inhibitors. HepDES19 is a cccDNA-producing cell line. In this cell line, HBeAg in the cell culture supernatant as surrogate marker, as HBeAg production depends on cccDNA level and activity. HepDES19 is an engineered cell line which contains a 1.1 unit length HBV genome, and pgRNA transcription from the transgene is controlled by Tetracycline (Tet). In the absence of Tet, pgRNA transcription will be induced, but HBV e antigen (HBeAg) could not be produced from this pgRNA due to very short leader sequence before the HBeAg start codon and the start codon is disrupted. Only after cccDNA is formed, the missing leader sequence and start codon mutation would be restored from the 3′-terminal redundancy of pgRNA, and then HBeAg could be synthesized. Therefore, HBeAg could be used as a surrogate marker for cccDNA (Zhou, T. et al., Antiviral Res. (2006), 72(2), 116-124; Guo, H. et al., J. Virol. (2007), 81(22), 12472-12484).
HepDES19 cells were seeded at 2×10^6 cells per T150 flask and cultured with the culture medium (Dulbecco's Modified Eagle Medium: Nutrient Mixture F-12 [DMEM-F12, Gibco Cat. 11320-82], 10% Fetal Bovine Serum [FBS, Clontech Cat. 631101], 0.1 mM Non-Essential Amino Acids Solution [NEAA, Gibco Cat. 11140-050], 50 μg/mL Penicillin-Streptomycin [PS, Invitrogen Cat. 15140-163], 500 μg/mL Geneticin [G418, Invitrogen Cat. 10131-027]) containing 3 μg/mL Tet (Sigma, Cat. 87128) for 5 days. Cells were then seeded at 4×10^6 cells per T150 in the same culture medium as described above in the absence of Tet for 8 days. Cells were then harvested and frozen at density of 2×10^6 cells per mL. For compound testing, the frozen cells were thawed and seeded into 96-well plates at a density of 6×10^4 cells per well. At 24 hrs after seeding, half log serial dilutions of compounds made with Dimethyl sulfoxide (DMSO, Sigma, Cat. D2650) were further diluted with the same culture medium as described above before they were added to the cells to reach desired final compound concentrations and 1% DMSO concentration. Plates were then incubated at 37° C. for another 5 days before measurement of HBeAg level and cell viability. Intracellular HBeAg level were measured with enzyme-linked immunosorbent assay (ELISA) kit (Shanghai Kehua Diagnostic Medical Products Co., Ltd). Cell viability was assessed using Cell Counting Kit-8 (Donjindo, Cat. CK04-20). IC50 values were derived from the dose-response curve using 4 parameter logistic curve fit method.
The compounds of the present invention were tested for their capacity to inhibit extracellular HBeAg level as described herein.

[3] abbreviates: read-out: IC50 (HBeAg) in HepDES19 primary screen assay, HepDES19 cells, 5 days incubation with compound, HBeAg by ELISA.
Setting [4] is: Hepatitis B virus, Hepatocyte, 216 h.
The mark [5] stands for this setting: Hepatitis B virus, HepDES19, 120 h, read-out: IC50 (HBeAg) in HepDES19 primary screen assay, HepDES19 cells, 5 days incubation with compound, HBeAg by ELISA.

For `CCOC(=O)C1CC1OCCOc1ccc(-c2cc(=O)c3cccc(Cl)c3o2)cc1` (single isomer, unassigned) [Example 4-A, ethyl 2-[2-[4-(8-chloro-4-oxo-chromen-2-yl)phenoxy]ethoxy]cyclopropanecarboxylate], the IC50 in experiment [1] is 6340 nM; in experiment [2] (setting [3]) it was 530 nM.

Turning to `O=c1cc(-c2ccc(OCCO[C@H]3C[C@@H](C(=O)O)C3)cc2)oc2c(Cl)ccc(O)c12` [Example 24, Cis-3-[2-[4-(8-chloro-5-hydroxy-4-oxo-chromen-2-yl)phenoxy]ethoxy]cyclobutanecarboxylic acid], the figures for the IC50 in experiment [1] (setting [4]) and in experiment [2] (setting [5]) were 4830 nM and 1140 nM, respectively.

In the case of `O=c1cc(-c2ccc(OCCO[C@H]3C[C@@H](C(=O)O)C3)c(C3CC3)c2)oc2c(Cl)cccc12` [Example 45, Cis-3-[2-[4-(8-chloro-4-oxo-chromen-2-yl)-2-cyclopropyl-phenoxy]ethoxy]cyclobutanecarboxylic acid], the IC50 is 530 nM in experiment [1] (setting [4]) and 13200 nM in experiment [2] (setting [5]).

Regarding `O=C(O)C1CC(OCCOc2ccc(-c3cc(=O)c4ccc(F)c(Cl)c4o3)cc2)C1` (stereo not drawn) [Example 15, 3-[2-[4-(8-chloro-7-fluoro-4-oxo-chromen-2-yl)phenoxy]ethoxy]cyclobutanecarboxylic acid], the IC50 was determined as 280 nM in experiment [1] (setting [4]) and 10300 nM in experiment [2] (setting [5]).

With `O=C(O)C1CC(OCCOc2ccc(-c3cc(=O)c4ccc(C5CC5)c(Cl)c4o3)cc2)C1` (single isomer, unassigned) [Example 70-B, 3-[2-[4-(8-chloro-7-cyclopropyl-4-oxo-chromen-2-yl)phenoxy]ethoxy]cyclobutanecarboxylic acid], the figures for the IC50 in experiment [1] (setting [4]) and in experiment [2] (setting [3]) were 4790 nM and 2140 nM, respectively.

As for `O=c1cc(-c2ccc(OCCO[C@H]3C[C@@H](C(=O)O)C3)c(Br)c2)oc2c(Cl)cccc12` [Example 44, Cis-3-[2-[2-bromo-4-(8-chloro-4-oxo-chromen-2-yl)phenoxy]ethoxy]cyclobutanecarboxylic acid], the IC50 in experiment [1] (setting [4]) stood at 40 nM; in experiment [2] (setting [5]), 570 nM.

Consider `N#Cc1cc(-c2cc(=O)c3cccc(Cl)c3o2)ccc1OCCOC1CC(C(=O)O)C1` (stereo not drawn) [Example 46, 3-[2-[4-(8-chloro-4-oxo-chromen-2-yl)-2-cyano-phenoxy]ethoxy]cyclobutanecarboxylic acid], for which the figures for the IC50 in experiment [1] (setting [4]) and in experiment [2] (setting [5]) were 130 nM and 16000 nM, respectively.

`Cc1cc(-c2cc(=O)c3cccc(Cl)c3o2)ccc1OCCOC1CC(C(=O)O)C1` (stereo not drawn) [Example 47, 3-[2-[4-(8-chloro-4-oxo-chromen-2-yl)-2-methyl-phenoxy]ethoxy]cyclobutanecarboxylic acid]: the IC50 in experiment [1] (setting [4]) came out at 240 nM; in experiment [2] (setting [5]), 40 nM.

`COc1ccc(Cl)c2oc(-c3ccc(OCCO[C@H]4C[C@@H](C(=O)O)C4)cc3)cc(=O)c12` [Example 25, Cis-3-[2-[4-(8-chloro-5-methoxy-4-oxo-chromen-2-yl)phenoxy]ethoxy]cyclobutanecarboxylic acid]: the figures for the IC50 in experiment [1] (setting [4]) and in experiment [2] (setting [5]) were 930 nM and 1050 nM, respectively.

With `CCOC(=O)C1CC(OCCOc2ccc(-c3cc(=O)c4cccc(Cl)c4o3)cc2)C1` (stereo not drawn) [Example 2, Ethyl 3-[2-[4-(8-chloro-4-oxo-chromen-2-yl)phenoxy]ethoxy]cyclobutanecarboxylate], the figures for the IC50 in experiment [1] (setting [4]) and in experiment [2] (setting [5]) were 190 nM and 2480 nM, respectively.

For `O=c1cc(-c2ccc(OCCO[C@H]3C[C@@H](C(=O)O)C3)cc2)oc2c(Cl)ccc(Br)c12` [Example 28, Cis-3-[2-[4-(5-bromo-8-chloro-4-oxo-chromen-2-yl)phenoxy]ethoxy]cyclobutanecarboxylic acid], the IC50 in experiment [1] (setting [4]) amounted to 1920 nM; in experiment [2] (setting [5]), 2800 nM.

For `O=c1cc(-c2cnc(OCCO[C@H]3C[C@@H](C(=O)O)C3)cn2)oc2c(Cl)cccc12` [Example 39, Cis-3-[2-[5-(8-chloro-4-oxo-chromen-2-yl)pyrazin-2-yl]oxyethoxy]cyclobutanecarboxylic acid], the IC50 in experiment [1] (setting [4]) was found to be 5740 nM; in experiment [2] (setting [5]), 9010 nM.

Regarding `O=c1c(O)c(-c2ccc(OCCO[C@H]3C[C@@H](C(=O)O)C3)cc2)oc2c(Cl)cccc12` [Example 55, Cis-3-[2-[4-(8-chloro-3-hydroxy-4-oxo-chromen-2-yl)phenoxy]ethoxy]cyclobutanecarboxylic acid], the IC50 in experiment [1] (setting [4]) was found to be 9500 nM; in experiment [2] (setting [5]), 120 nM.

As to `COc1ccc(-c2cc(=O)c3cc(OC)ccc3o2)cc1` [Example F-1, 6,4′-dimethoxyflavone, reference compound], the IC50 in experiment [1] (setting [4]) was 61700 nM; in experiment [2] (setting [5]) it was more than 50000 nM.

With `O=c1cc(-c2ccc(OCCO[C@H]3C[C@@H](C(=O)O)C3)c(Cl)c2)oc2c(Cl)c(C(F)(F)F)ccc12` [Example 73, Cis-3-[2-[2-chloro-4-[8-chloro-4-oxo-7-(trifluoromethyl)chromen-2-yl]phenoxy]ethoxy]cyclobutanecarboxylic acid], the IC50 in experiment [1] (setting [4]) is 6770 nM; in experiment [2] (setting [5]), 15400 nM.

With `COc1cc(OCCOC2CC(C(=O)O)C2)ccc1-c1cc(=O)c2cccc(Cl)c2o1` (stereo not drawn) [Example 50, 3-[2-[4-(8-chloro-4-oxo-chromen-2-yl)-3-methoxy-phenoxy]ethoxy]cyclobutanecarboxylic acid], the IC50 in experiment [1] (setting [4]) is 10200 nM; in experiment [2] (setting [5]), 1780 nM.

In the case of `N#Cc1ccc2c(=O)cc(-c3ccc(OCCOC4CC(C(=O)O)C4)cc3)oc2c1Cl` (single isomer, unassigned) [Example 23-B, 3-[2-[4-(8-chloro-7-cyano-4-oxo-chromen-2-yl)phenoxy]ethoxy]cyclobutanecarboxylic acid], the IC50 in experiment [1] (setting [4]) was found to be 6890 nM.

A word on the IC50: it is the concentration needed to halve the response being measured.
